We go through three molecules from patent publication US20060110405A1, “Plasma or serum fraction for treatment and prevention of viral infections and related conditions” (priority 2004, published 2006).

≈ marks a conversion by molar mass, not a printed value.

One series deals with HIV-1 IIIB. Kind of series: microbe, parasite or virus in culture. Format: cell-based. As to the method: Antibody depletion experiments were conducted on the product prepared as described in Example 3 by the panning technique as follows. […] The plate was incubated for 3 hours at room temperature. Following the incubation, the antibodies and PBS were removed and 200 μL of blocking solution (0.05% Tween 20, 10 mg/mL BSA in PBS) was added and the plate was incubated overnight at 4° C. Following the overnight incubation, the wells were washed 5 times with wash buffer (PBS plus 0.05% Tween-20). One hundred fifty microliters (150 μL) of the serum product (designated VR-30) was added to each of the wells and the plate was incubated for 2 hours at 37° C.
The serum was then removed and used in the HIV-β-galactosidase attachment assay. The depleted material was evaluated for activity in parallel with undepleted VR-30 (VR-30 Std Treatment) and mock-depleted VR-30 (VR-30 PBS).
The anti-HIV-activity of the initial serum sample is determined by: (1) measuring the protein concentration of the serum fraction using Bradford or Lowery based method for determining protein concentration; (2) determining the activity of the fraction using established in vitro anti-viral assay (attachment assay); (3) assigning a unit of activity to the fraction based on the amount of protein needed to achieve a 50% inhibition of viral replication/infectivity (IC50). This unit can be used as a baseline to track the fold purification obtained through the fractionation process.
Efficacy plates were evaluated by the chemilluminescence detection assay.
All EC50's in FIG. 2 and Table IV are the concentration of total protein (μg/ml) in a given fraction that inhibited viral replication in the attachment assay to 50% of the no compound control.

The next series relates to HeLa LTR β-Gal cells. Kind of series: Cellular toxicity in parallel plates, tetrazolium dye (XTT) cell viability end point. On the procedure:
The fold increase in activity was calculated as a relative decrease in EC50 to the Week 0 material. Chicago Sky Blue was included as a positive control for inhibition of viral attachment.
HIV Attachment Assay: A crude serum sample dialyzed against Buffer A, the dialyzed 66% ammonium sulfate pellet, and DEAE-Blue fractions 12, 14, 60, 62, 64, and 66 were analyzed for anti-HIV activity in a virus attachment assay. These fractions were diluted in Buffer A to a 2× high test concentration and analyzed for anti-HIV activity in a cell attachment assay that utilizes a galactosidase reporter to measure virus attachment and infection. Sister plates were used to evaluate fraction toxicity using an XTT based end point. Briefly, on the day prior to compound and virus addition, 100 μL of HeLa LTR β-Gal cells at a density of 1×10^4/well in 10% complete DMEM were plated in 96-well flat bottomed plates and incubated overnight at 37° C./5% CO2. Duplicate plates were seeded in order to evaluate efficacy and toxicity in parallel. Following the overnight incubation, selected protein fractions diluted to a high test concentration in culture media and were further diluted in ½ log increments such that a total of 6 concentrations were evaluated.
Medium was removed and 50 μL of the prepared compound dilutions were added in triplicate to both plates. A volume of 50 μL of 10% complete DMEM was added to the virus control wells and 100 μL was added to the cell control wells. Plates were incubated for approximately 15-30 minutes while virus (HIV-1 IIIB) was being prepared. The appropriate titer of virus used in the assay was determined and prepared and 50 μL was then added to the wells containing compound and the virus control wells on the efficacy plate. On the toxicity plate, 50 μL of 10% complete DMEM was added to these same wells. Plates were incubated for 2 hours at 37° C./5% CO2. […] Following the washing steps, 200 μL of 10% complete DMEM was added to all wells and the plates were incubated at 37° C./5% CO2 for 48 hours. The toxicity plates were evaluated by the addition of the tetrazolium dye XTT which is converted by mitochondrial enzymes in viable cells to a soluble formazan product. Efficacy plates were evaluated by the chemilluminescence detection assay.
Background: Tetrazolium dyes change colour on reduction, which living cells bring about.

Series [1] deals with monocytes and macrophages. The settings on record: antiviral models and cytokine induction from monocytes and macrophages; cited from earlier work.

As usually defined, the IC50 is the concentration that gives 50% inhibition. Usually EC50 stands for the concentration giving half of the maximal effect. Read a low EC50 as higher potency in that assay. Turning to `COc1cc(-c2ccc(/N=N/c3ccc4c(S(=O)(=O)O)cc(S(=O)(=O)O)c(N)c4c3O)c(OC)c2)ccc1/N=N/c1ccc2c(S(=O)(=O)O)cc(S(=O)(=O)O)c(N)c2c1O` [Chicago Sky Blue], the IC50 in the series on HIV-1 IIIB (Human immunodeficiency virus 1, IIIB, HeLa) stood at 1.3 µg/mL (≈ 1.44 µM). The 50% effective concentration (EC50) with HIV-1 IIIB (Human immunodeficiency virus 1, IIIB, HeLa, Table II, total protein for 50% inhibition of HIV attachment and replication, triplicate) was determined as 100 µg/mL (≈ 111 µM); in the series on HIV-1 IIIB (Human immunodeficiency virus 1, IIIB, HeLa, Table V, total protein inhibiting viral replication to 50% of no compound control, HIV-1 IIIB), 0.6 µg/mL (≈ 0.663 µM). The TC50 in the series on HeLa LTR β-Gal cells (Table I, control compounds) was over 10 µg/mL; in the series with HeLa LTR β-Gal cells (Table II, 50% cellular toxicity, XTT) it was over 10000 µg/mL; in the series on HeLa LTR β-Gal cells (Table V, XTT toxicity plates), over 10 µg/mL.

Regarding `CCOCc1nc2c(N)nc3ccccc3c2n1CC(C)(C)O` [Fraction S-28463, 4-Amino-otec,-dimethyl-2-ethoxymethyl-lH-imidazo[4,5-c]quinoline-1-ethanol], the “potency relative to imiquimod” value in series [1] was “about 100 fold”.

Dextran Sulfate: the IC50 in the series with HIV-1 IIIB (Table I, control compounds) came out at 0.65 µg/mL. In the series on HeLa LTR β-Gal cells (Table I, control compounds), this molecule registered a TC50 of over 25 µg/mL.
